Results published in patent publication US11912787B2, “Peptide for skin aging prevention and wrinkle reduction, and composition comprising same” (DERMAFIRM, INC., priority 2019, dated 2024).
Read-outs that look alike come from different tables or passages of the source. Residues, ends and D or L forms follow the SMILES beside them. *: point of attachment. Palmitoyl = CCCCCCCCCCCCCCCC(=O)*

Test system: Fibroblasts
Assay: MTT cytotoxicity assay
Assay type: cell-based
Method: In order to examine the cytotoxicity of the novel peptides (GHK-R4 (SEQ ID NO.: 3) and Pal-GHK-R4 (SEQ ID NO.: 4)) according to the Examples of the present invention, MTT assay was performed. As a control, GHK-acetate was used. Fibroblasts were treated with various concentrations of each of the control and the novel peptides, and after 24 hours, treated with MTT reagent. Next, the absorbance was measured, and the viability of the cells was calculated based on the absorbance.

For `NCCCC[C@H](NC(=O)[C@H](Cc1cnc[nH]1)NC(=O)CN)C(=O)O` [GHK-acetate, glycine-histidyl-lysine tripeptide, reference compound] (H-Gly-His-Lys-OH), the “IC30 (cell viability, MTT)” value was “about 31.71 mM”.
In the case of `CCCCCCCCCCCCCCCC(=O)NCC(=O)N[C@@H](Cc1c[nH]cn1)C(=O)N[C@@H](CCCCN)C(=O)N[C@@H](CCCNC(=N)N)C(=O)N[C@@H](CCCNC(=N)N)C(=O)N[C@@H](CCCNC(=N)N)C(=O)N[C@@H](CCCNC(=N)N)C(=O)O` [Pal-GHK-R4, Pal-GlyHisLys-ArgArgArgArg-OH] (Palmitoyl-GHKRRRR-OH), the “IC30 (cell viability, MTT)” value is reported as ~8.70 µM.
“H-GHKRRRR-OH [GHK-R4, H-GlyHisLys-ArgArgArgArg-OH]” was tested, and the “IC30 (cell viability, MTT)” value (fibroblasts, 24 hours treatment) was ~5320 µM.
